Measured values as given in ChEMBL document CHEMBL1201862, “PubChem BioAssay data set” (2004).
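Dose response: 5 concentrations. Exposure: 48 h. Format: 96-well plates. Endpoint: linear interpolation; highest concentration if not reached. GI50: concentration for 50% inhibition of growth.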 Calls of active or inactive are those of the source. Cut-off read from the data, not from the text of the source: active = GI50 up to about 1.1 µM and inactive = higher.

Columns and labels:
Test in all cases: growth of human tumour cells (NCI), 48 h
A549 = test system: A549
EKVX = test system: EKVX
COLO 205 = test system: COLO 205
KM12 = test system: KM12
UO-31 = test system: UO-31
MDA-N = test system: MDA-N
ACHN = test system: ACHN
NCI/ADR-RES = test system: NCI/ADR-RES
PC-3 = test system: PC-3
SK-OV-3 = test system: SK-OV-3
HOP-62 = test system: HOP-62
RXF 393 = test system: RXF 393
SW-620 = test system: SW-620
M14 = test system: M14
SK-MEL-2 = test system: SK-MEL-2
786-0 = test system: 786-0
HCT-116 = test system: HCT-116
MDA-MB-435 = test system: MDA-MB-435
HT-29 = test system: HT-29
HL-60 = test system: HL-60
BT-549 = test system: BT-549
IGROV-1 = test system: IGROV-1
Hs-578T = test system: Hs-578T
HCC 2998 = test system: HCC 2998
MOLT-4 = test system: MOLT-4
SNB-19 = test system: SNB-19
MCF7 = test system: MCF7
UACC-257 = test system: UACC-257
SK-MEL-5 = test system: SK-MEL-5
T47D = test system: T47D
SF-295 = test system: SF-295
OVCAR-8 = test system: OVCAR-8
K562 = test system: K562
NCI-H23 = test system: NCI-H23
Malme-3M = test system: Malme-3M
U-251 = test system: U-251
SF-268 = test system: SF-268
A498 = test system: A498
OVCAR-5 = test system: OVCAR-5
HCT-15 = test system: HCT-15
OVCAR-3 = test system: OVCAR-3
HOP-92 = test system: HOP-92
NCI-H460 = test system: NCI-H460
CCRF-CEM = test system: CCRF-CEM
MDA-MB-231 = test system: MDA-MB-231
SN12C = test system: SN12C
SR = test system: SR
LOX IMVI = test system: LOX IMVI
DU-145 = test system: DU-145
CAKI-1 = test system: CAKI-1
NCI-H522 = test system: NCI-H522
UACC-62 = test system: UACC-62
SF-539 = test system: SF-539
TK-10 = test system: TK-10
SK-MEL-28 = test system: SK-MEL-28
OVCAR-4 = test system: OVCAR-4
SNB-75 = test system: SNB-75
RPMI-8226 = test system: RPMI-8226
NCI-H226 = test system: NCI-H226

`COc1cccc(-c2nc(O)c3ccccc3n2)c1` was tested, and the GI50 (A549) was 21 µM (inactive), the GI50 (EKVX) was 26.8 µM (inactive) and the GI50 (COLO 205) was 37.8 µM (inactive). The GI50 (KM12) was 25 µM (inactive), the GI50 (UO-31) was 22.4 µM (inactive) and the GI50 (MDA-N) was 17.3 µM (inactive). The GI50 (ACHN) was 20.8 µM (inactive), the GI50 (NCI/ADR-RES) was 18.1 µM (inactive) and the GI50 (PC-3) was 20.1 µM (inactive). For the same compound, the GI50 (SK-OV-3) was 19.7 µM (inactive), the GI50 (HOP-62) was 17.5 µM (inactive) and the GI50 (RXF 393) was 25.4 µM (inactive). The GI50 (SW-620) was 32.9 µM (inactive), the GI50 (M14) was 50.2 µM (inactive) and the GI50 (SK-MEL-2) was 39.5 µM (inactive). For the same compound, the GI50 (786-0) was 14.9 µM (inactive), the GI50 (HCT-116) was 22.5 µM (inactive) and the GI50 (MDA-MB-435) was 14.9 µM (inactive). For the same compound, the GI50 (HT-29) was 21.2 µM (inactive), the GI50 (HL-60) was > 100 µM (inactive) and the GI50 (BT-549) was 24.8 µM (inactive). For the same compound, the GI50 (IGROV-1) was 24.5 µM (inactive), the GI50 (Hs-578T) was 19.6 µM (inactive) and the GI50 (HCC 2998) was 22.3 µM (inactive). The GI50 (MOLT-4) was 86.5 µM (inactive), the GI50 (SNB-19) was 19.8 µM (inactive) and the GI50 (MCF7) was 22.1 µM (inactive). The GI50 (UACC-257) was 21.7 µM (inactive), the GI50 (SK-MEL-5) was 24.3 µM (inactive) and the GI50 (T47D) was 21.8 µM (inactive). For the same compound, the GI50 (SF-295) was 32.1 µM (inactive), the GI50 (OVCAR-8) was 28.4 µM (inactive) and the GI50 (K562) was 38.5 µM (inactive). For the same compound, the GI50 (NCI-H23) was 26.7 µM (inactive), the GI50 (Malme-3M) was 21.6 µM (inactive) and the GI50 (U-251) was 7.31 µM (inactive). The GI50 (SF-268) was 19.4 µM (inactive), the GI50 (A498) was 22.4 µM (inactive) and the GI50 (OVCAR-5) was 39.4 µM (inactive). The GI50 (HCT-15) was 18 µM, the GI50 (OVCAR-3) was 21.2 µM (inactive) and the GI50 (HOP-92) was 27 µM (inactive). The GI50 (NCI-H460) was 23.2 µM (inactive), the GI50 (CCRF-CEM) was > 10 µM (inactive) and the GI50 (MDA-MB-231) was 25.3 µM (inactive). For the same compound, the GI50 (SN12C) was 33.9 µM (inactive), the GI50 (SR) was > 100 µM (inactive) and the GI50 (LOX IMVI) was 52.6 µM (inactive). For the same compound, the GI50 (DU-145) was 29.1 µM (inactive), the GI50 (CAKI-1) was 16.4 µM (inactive) and the GI50 (NCI-H522) was 23.2 µM (inactive). The GI50 (UACC-62) was 20.1 µM (inactive), the GI50 (SF-539) was 23.3 µM (inactive) and the GI50 (TK-10) was 17.9 µM (inactive). For the same compound, the GI50 (SK-MEL-28) was 28.1 µM (inactive).
For `Nc1ccc2nc3ccc(N)cc3[n+](-c3ccccc3)c2c1`, the GI50 (A549) was 45.4 µM (inactive), the GI50 (EKVX) was > 100 µM (inactive) and the GI50 (COLO 205) was 4.55 µM (inactive). The GI50 (OVCAR-4) was > 100 µM (inactive), the GI50 (KM12) was 36 µM (inactive) and the GI50 (UO-31) was > 100 µM (inactive). For the same compound, the GI50 (MDA-N) was 49.8 µM (inactive), the GI50 (ACHN) was 72.3 µM (inactive) and the GI50 (NCI/ADR-RES) was 14.9 µM (inactive). The GI50 (PC-3) was 29.3 µM (inactive), the GI50 (SK-OV-3) was > 100 µM (inactive) and the GI50 (HOP-62) was 43.3 µM (inactive). The GI50 (RXF 393) was > 100 µM (inactive), the GI50 (SW-620) was 37.3 µM (inactive) and the GI50 (M14) was 30.2 µM (inactive). For the same compound, the GI50 (SK-MEL-2) was 34.5 µM (inactive), the GI50 (786-0) was 95.7 µM (inactive) and the GI50 (HCT-116) was 26.4 µM (inactive). The GI50 (MDA-MB-435) was 50.4 µM (inactive), the GI50 (HT-29) was 21.2 µM (inactive) and the GI50 (HL-60) was > 100 µM (inactive). For the same compound, the GI50 (BT-549) was 92.7 µM (inactive), the GI50 (IGROV-1) was 37.3 µM (inactive) and the GI50 (Hs-578T) was 40.6 µM (inactive). For the same compound, the GI50 (HCC 2998) was > 100 µM (inactive), the GI50 (SNB-19) was 40.4 µM (inactive) and the GI50 (SNB-75) was 42.1 µM (inactive). For the same compound, the GI50 (MCF7) was 5.07 µM (inactive), the GI50 (UACC-257) was 9.27 µM (inactive) and the GI50 (SK-MEL-5) was 25.6 µM (inactive). For the same compound, the GI50 (RPMI-8226) was > 100 µM (inactive), the GI50 (T47D) was 7.78 µM (inactive) and the GI50 (SF-295) was 33.3 µM (inactive). For the same compound, the GI50 (K562) was 69.3 µM (inactive), the GI50 (NCI-H23) was 22.8 µM (inactive) and the GI50 (Malme-3M) was 18.6 µM (inactive). For the same compound, the GI50 (U-251) was 38.5 µM (inactive), the GI50 (SF-268) was 29 µM (inactive) and the GI50 (A498) was > 100 µM (inactive). The GI50 (OVCAR-5) was 29.9 µM (inactive), the GI50 (HCT-15) was > 100 µM and the GI50 (OVCAR-3) was 6.4 µM (inactive). For the same compound, the GI50 (HOP-92) was 67 µM (inactive), the GI50 (NCI-H460) was 32.8 µM (inactive) and the GI50 (CCRF-CEM) was > 100 µM (inactive). For the same compound, the GI50 (MDA-MB-231) was 63.8 µM (inactive), the GI50 (SN12C) was 25.4 µM (inactive) and the GI50 (SR) was 98.6 µM (inactive). For the same compound, the GI50 (LOX IMVI) was 15.7 µM (inactive), the GI50 (DU-145) was 68.2 µM (inactive) and the GI50 (CAKI-1) was > 100 µM (inactive). For the same compound, the GI50 (NCI-H522) was 11.6 µM (inactive), the GI50 (UACC-62) was 64.7 µM (inactive) and the GI50 (SF-539) was 60.7 µM (inactive). For the same compound, the GI50 (TK-10) was > 100 µM (inactive) and the GI50 (SK-MEL-28) was > 100 µM (inactive).
With `CC(NP(=O)(c1ccccc1)c1ccccc1)c1ccccc1` (centres undefined) the GI50 (A549) was > 100 µM (inactive), the GI50 (EKVX) was > 100 µM (inactive) and the GI50 (COLO 205) was > 100 µM (inactive). For the same compound, the GI50 (NCI-H226) was > 100 µM (inactive), the GI50 (OVCAR-4) was > 100 µM (inactive) and the GI50 (KM12) was > 100 µM (inactive). The GI50 (UO-31) was > 100 µM (inactive), the GI50 (MDA-N) was > 100 µM (inactive) and the GI50 (ACHN) was > 100 µM (inactive). For the same compound, the GI50 (NCI/ADR-RES) was > 100 µM (inactive), the GI50 (PC-3) was > 100 µM (inactive) and the GI50 (SK-OV-3) was > 100 µM (inactive). For the same compound, the GI50 (HOP-62) was > 100 µM (inactive), the GI50 (RXF 393) was > 100 µM (inactive) and the GI50 (SW-620) was > 100 µM (inactive). The GI50 (M14) was > 100 µM (inactive), the GI50 (786-0) was > 100 µM (inactive) and the GI50 (HCT-116) was > 100 µM (inactive). The GI50 (MDA-MB-435) was > 100 µM (inactive), the GI50 (HT-29) was > 100 µM (inactive) and the GI50 (HL-60) was > 100 µM (inactive). For the same compound, the GI50 (BT-549) was > 100 µM (inactive), the GI50 (IGROV-1) was > 100 µM (inactive) and the GI50 (Hs-578T) was > 100 µM (inactive). The GI50 (HCC 2998) was > 100 µM (inactive), the GI50 (MOLT-4) was > 100 µM (inactive) and the GI50 (SNB-19) was > 100 µM (inactive). For the same compound, the GI50 (SNB-75) was > 100 µM (inactive), the GI50 (MCF7) was > 100 µM (inactive) and the GI50 (UACC-257) was > 100 µM (inactive). The GI50 (SK-MEL-5) was > 100 µM (inactive), the GI50 (RPMI-8226) was > 100 µM (inactive) and the GI50 (T47D) was > 100 µM (inactive). For the same compound, the GI50 (SF-295) was > 100 µM (inactive), the GI50 (OVCAR-8) was > 100 µM (inactive) and the GI50 (K562) was > 100 µM (inactive). For the same compound, the GI50 (NCI-H23) was > 100 µM (inactive), the GI50 (Malme-3M) was > 100 µM (inactive) and the GI50 (U-251) was > 100 µM (inactive). For the same compound, the GI50 (SF-268) was > 100 µM (inactive), the GI50 (A498) was > 100 µM (inactive) and the GI50 (OVCAR-5) was > 100 µM (inactive). The GI50 (HCT-15) was > 100 µM, the GI50 (OVCAR-3) was > 100 µM (inactive) and the GI50 (HOP-92) was > 100 µM (inactive). The GI50 (NCI-H460) was > 100 µM (inactive), the GI50 (CCRF-CEM) was > 100 µM (inactive) and the GI50 (MDA-MB-231) was > 100 µM (inactive). For the same compound, the GI50 (SN12C) was > 100 µM (inactive), the GI50 (SR) was > 100 µM (inactive) and the GI50 (LOX IMVI) was > 100 µM (inactive). The GI50 (DU-145) was > 100 µM (inactive), the GI50 (CAKI-1) was > 100 µM (inactive) and the GI50 (NCI-H522) was > 100 µM (inactive). For the same compound, the GI50 (UACC-62) was > 100 µM (inactive), the GI50 (SF-539) was > 100 µM (inactive) and the GI50 (TK-10) was > 100 µM (inactive). The GI50 (SK-MEL-28) was > 100 µM (inactive).
